Data published in patent US7056935B2, “Rotamase enzyme activity inhibitors” (GPI NIL Holdings, Inc., priority 1995, dated 2006).
Read-outs that look alike come from different tables or passages of the source.

Columns and labels:
[1] = system: chick dorsal root ganglia (DRG) explants; assay: Chick dorsal root ganglion cultures and neurite outgrowth; type: cell-based; conditions: read-out: ED50, nM Neurite Outgrowth in DRG Cultures
Procedure: Dorsal root ganglia were dissected from chick embryos of ten day gestation. Whole ganglion explants were cultured on thin layer Matrigel-coated 12 well plates with Liebovitz L15 plus high glucose media supplemented with 2 mM glutamine and 10% fetal calf serum, and also containing 10 μM cytosine β-D arabinofuranoside (Ara C) at 37° C. in an environment containing 5% CO2. Twenty-four hours later, the DRGs were treated with various concentrations of nerve growth factor (NGF), immunophilin ligands or combinations of NGF plus drugs. Forty-eight hours after drug treatment, the ganglia were visualized under phase contrast or Hoffman Modulation contrast with a Zeiss Axiovert inverted microscope. Photomicrographs of the explants were made, and neurite outgrowth was quantitated. Neurites longer than the DRG diameter were counted as positive, with total number of neurites quantitated per each experimental condition. Three to four DRGs were cultured per well, and each treatment was performed in duplicate.

FKBP = FKBP (Homo sapiens, UniProt P62942); assay: Ki test procedure: inhibition of peptidyl-prolyl isomerase (rotamase) activity, chymotrypsin-coupled assay; type: biochemical; conditions: apparent Ki, substrate N-succinyl-Ala-Phe-Pro-Phe-p-nitroanilide
Sequence of FKBP (P62942 whole entry): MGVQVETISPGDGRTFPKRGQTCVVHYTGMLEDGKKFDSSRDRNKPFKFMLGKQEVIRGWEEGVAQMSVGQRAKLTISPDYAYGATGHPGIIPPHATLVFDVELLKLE

[2] = drug alone, chick embryo DRG explants, 48 hours after drug treatment

Compound COc1cc(C(=O)C(=O)N2CCCCC2C(=O)OC(CCCc2ccccc2)CCCc2ccccn2)cc(OC)c1OC [Compound 31, 1-Phenyl-7-(2-pyridyl)-4-heptyl (S)-N-(3,4,5-trimethoxyphenylglyoxyl)pipecolate] has an EC50 ([1]; Gallus gallus, 48 h) of 25 nM and a Ki (FKBP; Table II) of 1 nM.

Compound CCC(C)(C)C(=O)C(=O)N1CCC[C@H]1C(=O)OCCCc1ccccc1 [Compound 17, 3-phenyl-1-propyl (2S)-1-(3,3-dimethyl-1,2-dioxopentyl)-2-pyrrolidinecarboxylate] has an EC50 ([1]; Gallus gallus, 48 h) of 0.053 nM.

CCC(C)(C)C(=O)C(=O)N1CCC[C@H]1C(=O)OC/C=C/c1cc(OC)ccc1OC [Compound 22, 3-(2,5-Dimethoxyphenyl)-1-prop-2(E)-enyl (2S)-1-(3,3-dimethyl-1,2-dioxopentyl)-2-pyrrolidinecarboxylate] gave an EC50 ([1]; Gallus gallus, 48 h) of 0.8 nM.

COc1ccc(CCCCOC(=O)C2CCCCN2C(=O)C(=O)c2ccccc2)cc1 (centres unmarked) [Compound 3] was tested, and the EC50 ([1]; Gallus gallus, 48 h) was 0.5 nM.

COc1cc(C(=O)C(=O)N2CCCCC2C(=O)OCCCCc2ccccc2)cc(OC)c1OC [Compound 14, 4-Phenylbutyl (S)-N-(3,4,5-trimethoxyphenylglyoxyl)pipecolate] was tested, and the EC50 ([1]; Gallus gallus, 48 h) was 1 to 5 nM.

In the case of CCC(C)(C)C(=O)C(=O)N1CCC[C@H]1C(=O)OCCCc1cccnc1 [Compound 23, 3-(3-Pyridyl)-1-propyl (2S)-1-(3,3-dimethyl-1,2-dioxopentyl)-2-pyrrolidinecarboxylate], the EC50 ([1]; Gallus gallus, 48 h) is reported as 0.05 nM.

For O=C(C(=O)N1CCCCC1C(=O)OCCc1ccccc1)c1ccccc1 (centres unmarked) [Compound 5, 2-Phenyl-1-ethyl N-(phenylglyoxyl)-2-piperidinecarboxylate], the EC50 ([1]; Gallus gallus, 48 h) was 25 to 100 nM.

O=C(C(=O)N1CCCCC1C(=O)OC(CCCc1ccccc1)CCCc1ccccc1)c1ccccc1 (centres unmarked) [Compound 28] gave an EC50 [1, 2] of 0.0044 nM.

O=C(C(=O)N1CCCCC1C(=O)OCc1ccccc1)c1ccccc1 (centres unmarked) [Compound 1, Benzyl N-(phenylglyoxyl)-2-piperidinecarboxylate] showed an EC50 ([1]; Gallus gallus, 48 h) of 25 to 100 nM.

For CCC(C)(C)C(=O)C(=O)N1CCC[C@H]1C(=O)OC/C=C/c1ccccc1 [Compound 18, 3-phenyl-1-prop-2-(E)-enyl (2S)-1-(3,3-dimethyl-1,2-dioxopentyl)-2-pyrrolidinecarboxylate], the EC50 ([1]; Gallus gallus, 48 h) was 105 nM.

For COc1cc(C(=O)C(=O)N2CCCCC2C(=O)OC(CCCc2ccccc2)CCc2cccnc2)cc(OC)c1OC [Compound 30, 1-Phenyl-6-(3-pyridyl)-3-hexyl (S)-N-(3,4,5-trimethoxyphenylglyoxyl)pipecolate], the EC50 ([1]; Gallus gallus, 48 h) was 0.95 nM.

With CCC(C)(C)C(=O)C(=O)N1CCC[C@H]1C(=O)OC/C=C/c1ccc(Cl)c(Cl)c1 [Compound 21, 3-(4,5-Dichlorophenyl)-1-prop-2-(E)-enyl (2S)-1-(3,3-dimethyl-1,2-dioxopentyl)-2-pyrrolidine carboxylate] the EC50 ([1]; Gallus gallus, 48 h) was 85 nM and the Ki (FKBP; Table I) was 2500 nM.

Compound COc1ccc(CCCC(CCCc2ccccc2)OC(=O)C2CCCCN2C(=O)C(=O)c2cc(OC)c(OC)c(OC)c2)cc1 [Compound 32, 1-Phenyl-7-(4-methoxyphenyl)-4-heptyl (S)-N-(3,4,5-trimethoxyphenylglyoxyl)-pipecolate] has an EC50 ([1]; Gallus gallus, 48 h) of 0.5 nM and a Ki (FKBP; Table II) of 3 nM.

Work on O=C(C(=O)N1CCCCC1C(=O)OCCCCc1ccccc1)c1ccccc1 (centres unmarked) [Compound 4, 4-Phenyl-1-butyl N-(phenylglyoxyl)-2-piperidinecarboxylate] yielded an EC50 ([1]; Gallus gallus, 48 h) of 25 to 100 nM.

Compound COc1ccc(CCCCOC(=O)C2CCCCN2C(=O)C(=O)c2cc(OC)c(OC)c(OC)c2)cc1 [Compound 16, 4-(4-Methoxyphenyl)butyl (S)-N-(3,4,5-trimethoxyphenylglyoxyl)pipecolate] has an EC50 ([1]; Gallus gallus, 48 h) of 0.03 nM.

Work on CCC(C)(C)C(=O)C(=O)N1CCC[C@H]1C(=O)OCCCc1cc(OC)c(OC)c(OC)c1 [Compound 19, 3-(3,4,5-trimethoxyphenyl)-1-propyl (2S)-1-(3,3-dimethyl-1,2-dioxopentyl)-2-pyrrolidine-carboxylate] yielded an EC50 ([1]; Gallus gallus, 48 h) of 80 nM and a Ki (FKBP; Table I) of 25 nM.

O=C(C(=O)N1CCC[C@H]1C(=O)OCCCc1ccccc1)C1CCCCC1 [Compound 24, 3-Phenyl-1-propyl (2S)-1-(cyclohexylglyoxyl)-2-pyrrolidinecarboxylate] was tested, and the EC50 ([1]; Gallus gallus, 48 h) was 0.13 nM.

In the case of CCC(C)(C)C(=O)C(=O)N1CCC[C@H]1C(=O)OC/C=C/c1cc(OC)c(OC)c(OC)c1 [Compound 20, 3-(3,4,5-trimethoxyphenyl)-1-prop-2-(E)-enyl (2S)-1-(3,3-dimethyl-1,2-dioxopentyl)-2-pyrrolidine carboxylate], the EC50 ([1]; Gallus gallus, 48 h) is reported as 190 nM and the Ki (FKBP; Table I) is reported as 125 nM.

O=C(C(=O)N1CCCCC1C(=O)OCCCc1ccccc1)c1ccccc1 (centres unmarked) [Compound 2, 3-Phenyl-1-propyl N-(phenylglyoxyl)-2-piperidinecarboxylate] was tested, and the EC50 ([1]; Gallus gallus, 48 h) was 10 to 20 nM.

COc1cc(C(=O)C(=O)N2CCCCC2C(=O)OC(CCCc2ccccc2)CCCc2ccccc2)cc(OC)c1OC [Compound 29, 1,7-Diphenyl-4-heptyl (S)-N-(3,4,5-trimethoxyphenylglyoxyl)pipecolate] gave an EC50 [1, 2] of 0.61 nM.

Compound COC(=O)C(=O)N1CCCCC1C(=O)OCc1ccccc1 (centres unmarked) [Compound 7, Benzyl N-(methoxyglyoxyl)-2-piperidinecarboxylate] has an EC50 ([1]; Gallus gallus, 48 h) of over 10000 nM.
